From US7511040B2, “Imidazopyrazines as protein kinase inhibitors” (Schering Corporation, priority 2006, dated 2009)

Key:
recombinant Aurora B = target: T1, recombinant Aurora B (Homo sapiens, UniProt Q96GD4); experiment: Aurora B enzyme assay (IMAP fluorescence polarization, Tamra-PKAtide substrate); format: biochemical; settings: 26 nM enzyme, 50 μM ATP, 100 nM Tamra-PKAtide, 2 hours at room temperature
T1 construct: purchased Invitrogen pv3970
Method: (§1) An in vitro assay was developed that utilizes recombinant Aurora A or Aurora B as an enzyme source and a peptide based on PKA as the substrate.
[…] kinase assays were performed in low protein binding 384-well plates (Corning Inc). All reagents were thawed on ice. Compounds were diluted in 100% DMSO to desirable concentrations. Each reaction consisted of 26 nM enzyme (Aurora B, Invitrogen cat#pv3970), 100 nM Tamra-PKAtide (Molecular Devices, 5TAMRA-GRTGRRNSICOOH), 50 μM ATP (Roche), 1 mM DTT (Pierce), and kinase buffer (10 mM Tris, 10 mM MgCl2, 0.01% Tween 20). For each reaction, 14 μl containing TAMRA-PKAtide, ATP, DTT and kinase buffer were combined with 1 μl diluted compound. The kinase reaction was started by the addition of 5 μl diluted enzyme. The reaction was allowed to run for 2 hours at room temperature. The reaction was stopped by adding 60 μl IMAP beads (1:400 beads in progressive (94.7% buffer A: 5.3% buffer B) 1× buffer, 24 mM NaCl). After an additional 2 hours, fluorescent polarization was measured using an Analyst AD (Molecular devices).
(§2) Dose-response curves were plotted from inhibition data generated each in duplicate, from 8 point serial dilutions of inhibitory compounds. Concentration of compound was plotted against kinase activity, calculated by degree of fluorescent polarization. To generate IC50 values, the dose-response curves were then fitted to a standard sigmoidal curve and IC50 values were derived by nonlinear regression analysis.

recombinant Aurora A = target: T2, recombinant Aurora A (Homo sapiens, UniProt O14965); experiment: Aurora A enzyme assay (IMAP fluorescence polarization, Tamra-PKAtide substrate); format: biochemical; settings: 8 nM enzyme, 25 μM ATP, 100 nM Tamra-PKAtide, 2 hours at room temperature
T2 construct: purchased Upstate 14-511
T2 sequence (O14965 1-403): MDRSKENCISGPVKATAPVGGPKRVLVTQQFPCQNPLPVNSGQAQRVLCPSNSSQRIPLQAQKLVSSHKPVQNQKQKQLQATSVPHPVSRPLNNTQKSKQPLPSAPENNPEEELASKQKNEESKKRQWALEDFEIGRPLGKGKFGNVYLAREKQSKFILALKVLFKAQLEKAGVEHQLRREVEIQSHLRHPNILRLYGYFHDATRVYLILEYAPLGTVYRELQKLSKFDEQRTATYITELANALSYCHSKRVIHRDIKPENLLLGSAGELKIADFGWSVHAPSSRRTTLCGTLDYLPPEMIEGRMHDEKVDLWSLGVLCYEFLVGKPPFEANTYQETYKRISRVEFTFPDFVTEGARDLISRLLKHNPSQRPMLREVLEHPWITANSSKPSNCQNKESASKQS
Method: as §1
Aurora A kinase assays were performed in low protein binding 384-well plates (Corning Inc). All reagents were thawed on ice. Compounds were diluted in 100% DMSO to desirable concentrations. […] For each reaction, 14 μl containing TAMRA-PKAtide, ATP, DTT and kinase buffer were combined with 1 μl diluted compound. The kinase reaction was started by the addition of 5 μl diluted enzyme. The reaction was allowed to run for 2 hours at room temperature. […] After an additional 2 hours, fluorescent polarization was measured using an Analyst AD (Molecular devices).
as §2

T1 sequence (Q96GD4 whole entry): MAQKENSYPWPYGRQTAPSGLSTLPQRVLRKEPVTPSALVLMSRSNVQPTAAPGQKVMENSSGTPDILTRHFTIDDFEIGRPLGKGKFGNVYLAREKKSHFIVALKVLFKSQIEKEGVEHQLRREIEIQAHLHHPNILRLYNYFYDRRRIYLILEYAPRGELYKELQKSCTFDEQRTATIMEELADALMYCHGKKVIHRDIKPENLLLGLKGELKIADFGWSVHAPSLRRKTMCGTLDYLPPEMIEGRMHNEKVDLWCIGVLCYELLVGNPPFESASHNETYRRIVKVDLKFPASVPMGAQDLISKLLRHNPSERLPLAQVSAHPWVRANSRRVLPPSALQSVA

Cc1cc(Nc2nc(Sc3ccncc3)cn3c(-c4cn[nH]c4)cnc23)sn1 [Example 4-21]
IC50 (recombinant Aurora B): 285 nM

Cc1cc(Nc2nc(SC3CCNC3)cn3c(-c4cnn(C)c4)cnc23)sn1 (centres unmarked) [Example 4-26]
IC50 (recombinant Aurora A): > 5000 nM
IC50 (recombinant Aurora B): > 3000 nM

CSc1cn2c(-c3ccco3)cnc2c(Nc2cc(C)ns2)n1 [Example 4-30]
IC50 (recombinant Aurora A): 2530 nM
IC50 (recombinant Aurora B): 1320 nM

CSc1cn2c(-c3cc(C4CC4)[nH]n3)cnc2c(Nc2cc(C)ns2)n1 [Example 4-28]
IC50 (recombinant Aurora A): 16500 nM
IC50 (recombinant Aurora B): > 3000 nM

Cc1cc(Nc2nc(SCC(C)O)cn3c(-c4cn[nH]c4)cnc23)sn1 (centres unmarked) [Example 4-18]
IC50 (recombinant Aurora B): 9 nM

COc1ccccc1Sc1cn2c(-c3cn[nH]c3)cnc2c(Nc2cc(C)ns2)n1 [Example 4-10]
IC50 (recombinant Aurora A): 74 nM
IC50 (recombinant Aurora B): 24 nM

COc1cccc(Sc2cn3c(-c4cn[nH]c4)cnc3c(Nc3cc(C)ns3)n2)c1 [Example 4-11]
IC50 (recombinant Aurora A): 50 nM
IC50 (recombinant Aurora B): 114 nM

Cc1cc(Nc2nc(Sc3ccccc3Cl)cn3c(-c4cn[nH]c4)cnc23)sn1 [Example 4-4]
IC50 (recombinant Aurora A): 600 nM
IC50 (recombinant Aurora B): 442 nM

CNc1ncc(-c2cnc3c(Nc4cc(C)ns4)nc(SC)cn23)s1 [Example 4-31]
IC50 (recombinant Aurora A): 7540 nM
IC50 (recombinant Aurora B): 710 nM

COc1ccc(Sc2cn3c(-c4cn[nH]c4)cnc3c(Nc3cc(C)ns3)n2)cc1 [Example 4-12]
IC50 (recombinant Aurora B): 24 nM

Cc1cc(Nc2nc(Sc3ccccn3)cn3c(-c4cn[nH]c4)cnc23)sn1 [Example 4-5]
IC50 (recombinant Aurora B): 432 nM

Cc1cc(Nc2nc(Sc3ncc[nH]3)cn3c(-c4cn[nH]c4)cnc23)sn1 [Example 4-23]
IC50 (recombinant Aurora B): 66 nM

CNC(=O)CSc1cn2c(-c3cn[nH]c3)cnc2c(Nc2cc(C)ns2)n1 [Example 4-6]
IC50 (recombinant Aurora B): 15 nM

CSc1cn2c(-c3cccc(C)c3)cnc2c(Nc2cc(C)ns2)n1 [Example 4-32]
IC50 (recombinant Aurora A): 14200 nM
IC50 (recombinant Aurora B): > 3000 nM

Cc1cc(Nc2nc(Sc3nc4ccccc4s3)cn3c(-c4cn[nH]c4)cnc23)sn1 [Example 4-1]
IC50 (recombinant Aurora A): 661 nM

CSc1cn2c(-c3cc[nH]n3)cnc2c(Nc2cc(C)ns2)n1 [Example 4-27]
IC50 (recombinant Aurora A): 697 nM
IC50 (recombinant Aurora B): 223 nM

CC(=O)Nc1ccc(Sc2cn3c(-c4cn[nH]c4)cnc3c(Nc3cc(C)ns3)n2)cc1 [Example 4-14]
IC50 (recombinant Aurora A): 9 nM
IC50 (recombinant Aurora B): 4 nM

Cc1cc(Nc2nc(Sc3ccc(Cl)cc3)cn3c(-c4cn[nH]c4)cnc23)sn1 [Example 4-13]
IC50 (recombinant Aurora B): 612 nM

Cc1cc(Nc2nc(Sc3cccc(Cl)c3)cn3c(-c4cn[nH]c4)cnc23)sn1 [Example 4-20]
IC50 (recombinant Aurora B): 10 nM

Cc1cc(Nc2nc(Sc3ccc(NC(=O)C4CC4)cc3)cn3c(-c4cn[nH]c4)cnc23)sn1 [Example 4-19]
IC50 (recombinant Aurora A): 25 nM
IC50 (recombinant Aurora B): 67 nM

CSc1cn2c(-c3cn[nH]c3)cnc2c(Nc2cc(C)ns2)n1 [Example 4-3]
IC50 (recombinant Aurora B): 11 nM

Cc1cc(Nc2nc(Sc3ncn[nH]3)cn3c(-c4cn[nH]c4)cnc23)sn1 [Example 4-24]
IC50 (recombinant Aurora B): 35 nM

Cc1cc(Nc2nc(Sc3nccs3)cn3c(-c4cn[nH]c4)cnc23)sn1 [Example 4-22]
IC50 (recombinant Aurora B): 7 nM

Cc1cc(Nc2nc(SC3CC3)cn3c(-c4cn[nH]c4)cnc23)sn1 [Example 4-25]
IC50 (recombinant Aurora B): < 1000 nM
